The inhibition is the share of the control response that was lost under treatment. The low end stands for a response near the control, the high end for a response far below the control. The pIC50 is the negative decadic logarithm of the IC50, by convention in mol/L. Lower therefore signals a high IC50. Usually inhibition in vivo stands for the relative decrease from the control value, in per cent.

pIC50: −log10 of the molar value.

From ChEMBL document CHEMBL1135169, “4,4-Disubstituted cyclohexylamine NK(1) receptor antagonists I” (Bioorg Med Chem Lett, 2002) come the findings set out here.

One test concerns Gerbillinae. Briefly: Inhibitory dose required to produce blockade of foot-tapping activity induced by central infusion of NK1-agonist GR-73632. The class given is functional. The following applies: read-out: ID50 (the source's name).
Regarding `CC(C(=O)N[C@]1(c2ccccc2)CC[C@@H](N2CCC(c3ccc(F)cc3)CC2)CC1)c1cc(C(F)(F)F)cc(C(F)(F)F)c1` (mixture of isomers), the ED50 was determined as 1.7 mg/kg.

In the case of `O=C(NCc1cc(C(F)(F)F)cc(C(F)(F)F)c1)[C@]1(c2ccccc2)CC[C@H](N2CCC(c3ccc(F)cc3)CC2)CC1`, the ED50 worked out at 1.9 mg/kg.

For a further test, the target named is T1, Substance-P receptor (Homo sapiens, UniProt P25103). Briefly: Tested for inhibitory concentration expressed as displacement of [125I]-labeled substance P from the cloned Tachykinin receptor 1 expressed in CHO cells at dosage of 1000 nM. The class given is cell-based.
T1 sequence (P25103 whole entry): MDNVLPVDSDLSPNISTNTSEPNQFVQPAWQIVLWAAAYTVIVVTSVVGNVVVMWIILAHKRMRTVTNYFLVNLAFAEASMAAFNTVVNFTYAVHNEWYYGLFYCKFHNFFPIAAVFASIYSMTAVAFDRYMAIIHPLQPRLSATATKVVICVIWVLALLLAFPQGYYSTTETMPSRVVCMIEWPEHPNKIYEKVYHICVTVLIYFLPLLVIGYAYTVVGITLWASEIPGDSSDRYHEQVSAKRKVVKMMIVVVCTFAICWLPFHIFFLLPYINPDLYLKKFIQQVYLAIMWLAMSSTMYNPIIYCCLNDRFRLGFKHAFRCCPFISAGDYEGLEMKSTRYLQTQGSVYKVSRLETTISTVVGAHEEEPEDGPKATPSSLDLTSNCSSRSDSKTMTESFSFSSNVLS
Settings: not given
On the technique in general: Loss of bound radioactivity is the signal in a displacement assay; it reports binding, not function.
The compound `O=C(OC[C@]1(c2ccccc2)CC[C@@H](N2CCC(c3ccc(F)cc3)CC2)CC1)c1cc(C(F)(F)F)cc(C(F)(F)F)c1` displayed an inhibition of 50%.

The next test deals with T1, Substance-P receptor. Briefly: Tested for inhibitory concentration expressed as displacement of [125I]-labeled substance P from the cloned human Tachykinin receptor 1 expressed in CHO cells. The class given is cell-based.
Settings: not given
`FC(F)(F)c1cc(CO[C@H]2C3CCN(CC3)[C@H]2c2ccccc2)cc(C(F)(F)F)c1`: the negative logarithm of the IC50 (pIC50) is 9.70.

The subject of a further test is Gerbillinae. Briefly: Inhibitory dose after 24 hours required to produce blockade of foot-tapping activity induced by central infusion of NK1-agonist GR-73632. Type of test: functional. Particulars: read-out: ID50 (the source's name).
As for `CC(C(=O)N[C@]1(c2ccccc2)CC[C@@H](N2CCC(c3ccc(F)cc3)CC2)CC1)c1cc(C(F)(F)F)cc(C(F)(F)F)c1` (mixture of isomers), the ED50 turned out to be 1.8 mg/kg.

In a further test the target is T1, Substance-P receptor. Briefly: Displacement of [125I]-labeled substance P from the cloned Tachykinin receptor 1.
Settings: not given
Compound `O=C(N[C@]1(c2ccccc2)CC[C@@H](N2CCC(c3ccc(F)cc3)CC2)CC1)C(CO)c1cc(C(F)(F)F)cc(C(F)(F)F)c1` (mixture of isomers) had a pIC50 of 9.36.

In turn, `O=C(NCc1cc(C(F)(F)F)cc(C(F)(F)F)c1)C1(c2ccccc2)CCNCC1` had a pIC50 of 6.89.

The compound `O=C(NCc1cc(C(F)(F)F)cc(C(F)(F)F)c1)[C@]1(c2ccccc2)CC[C@@H](N2CCC(c3ccc(F)cc3)CC2)CC1` gave a negative-log IC50 (pIC50) of 6.82. This pIC50 and that of the compound before are within 0.2 log units of each other.

On to `Fc1ccc(C2CCN([C@H]3CC[C@@](COCc4cc(C(F)(F)F)cc(C(F)(F)F)c4)(c4ccccc4)CC3)CC2)cc1`, for which the negative logarithm of the IC50 (pIC50) was 7.23.

As to `O=C(Cc1cc(C(F)(F)F)cc(C(F)(F)F)c1)N[C@]1(c2ccccc2)CC[C@@H](N2CCC(c3ccc(F)cc3)CC2)CC1`, the pIC50 was 7.07.

In turn, `CC(NC(=O)[C@]1(c2ccccc2)CC[C@@H](N2CCC(c3ccc(F)cc3)CC2)CC1)c1cc(C(F)(F)F)cc(C(F)(F)F)c1` (stereo in doubt; (+)-29a) gave a negative-log IC50 (pIC50) of 9.46.

The compound `Fc1ccc(C2CCN([C@H]3CC[C@@](CNCc4cc(C(F)(F)F)cc(C(F)(F)F)c4)(c4ccccc4)CC3)CC2)cc1` showed a pIC50 of 7.09.

Compound `Fc1ccc(C2CCN([C@H]3CC[C@](CNCc4cc(C(F)(F)F)cc(C(F)(F)F)c4)(c4ccccc4)CC3)CC2)cc1` had a pIC50 of 8.77.

`Fc1ccc(C2CCN([C@H]3CC[C@](COCc4cc(C(F)(F)F)cc(C(F)(F)F)c4)(c4ccccc4)CC3)CC2)cc1`: the pIC50 is 8.38.

The compound `CC(C)(NC(=O)[C@]1(c2ccccc2)CC[C@@H](N2CCC(c3ccc(F)cc3)CC2)CC1)c1cc(C(F)(F)F)cc(C(F)(F)F)c1` had a negative logarithm of the IC50 (pIC50) of 9.21. Against the preceding compound, the pIC50 is 0.83 log units higher.

As for `O=C(NC(CO)c1cc(C(F)(F)F)cc(C(F)(F)F)c1)[C@]1(c2ccccc2)CC[C@@H](N2CCC(c3ccc(F)cc3)CC2)CC1` (mixture of isomers), the negative-log IC50 (pIC50) is 9.54.

On to `O=C(NC[C@]1(c2ccccc2)CC[C@H](N2CCC(c3ccc(F)cc3)CC2)CC1)c1cc(C(F)(F)F)cc(C(F)(F)F)c1`, for which the negative-log IC50 (pIC50) is 8.20.

In the case of `CC(NC(=O)[C@]1(c2ccccc2)CC[C@@H](N2CCC(c3ccc(F)cc3)CC2)CC1)c1cc(C(F)(F)F)cc(C(F)(F)F)c1` (mixture of isomers), the negative-log IC50 (pIC50) is 9.11.

In turn, `O=C(OCc1cc(C(F)(F)F)cc(C(F)(F)F)c1)[C@]1(c2ccccc2)CC[C@@H](N2CCC(c3ccc(F)cc3)CC2)CC1` showed a negative logarithm of the IC50 (pIC50) of 6.85. Against the preceding compound, the pIC50 is 2.26 log units lower.

Compound `CC(C)(C(=O)N[C@]1(c2ccccc2)CC[C@@H](N2CCC(c3ccc(F)cc3)CC2)CC1)c1cc(C(F)(F)F)cc(C(F)(F)F)c1` had a negative-log IC50 (pIC50) of 9.31.

In the case of `O=C(OCc1cc(C(F)(F)F)cc(C(F)(F)F)c1)[C@]1(c2ccccc2)CC[C@H](N2CCC(c3ccc(F)cc3)CC2)CC1`, the pIC50 was 8.60.

In turn, `OCC(OC[C@]1(c2ccccc2)CC[C@@H](N2CCC(c3ccc(F)cc3)CC2)CC1)c1cc(C(F)(F)F)cc(C(F)(F)F)c1` (mixture of isomers) had a pIC50 of 9.12. Compared with the last compound, the pIC50 is 0.52 log units higher.

On to `O=C(NC[C@]1(c2ccccc2)CC[C@@H](N2CCC(c3ccc(F)cc3)CC2)CC1)c1cc(C(F)(F)F)cc(C(F)(F)F)c1`, for which the pIC50 was 6.60.

On to `O=C(Cc1cc(C(F)(F)F)cc(C(F)(F)F)c1)N[C@]1(c2ccccc2)CC[C@H](N2CCC(c3ccc(F)cc3)CC2)CC1`, for which the pIC50 is 9.15.

`CC(OC[C@]1(c2ccccc2)CC[C@@H](N2CCC(c3ccc(F)cc3)CC2)CC1)c1cc(C(F)(F)F)cc(C(F)(F)F)c1` (mixture of isomers) showed a negative-log IC50 (pIC50) of 8.28. Against the preceding compound, the pIC50 is 0.87 log units lower.

`Fc1ccc(C2CCN(C3CCC(CCCc4cc(C(F)(F)F)cc(C(F)(F)F)c4)(c4ccccc4)CC3)CC2)cc1` (mixture of isomers) had a pIC50 of 7.40.

In the case of `CC(NC(=O)[C@]1(c2ccccc2)CC[C@@H](N2CCC(c3ccc(F)cc3)CC2)CC1)c1cc(C(F)(F)F)cc(C(F)(F)F)c1` (single isomer, unassigned; (-)), the pIC50 was 8.82. Compared with the last compound, the pIC50 is 1.42 log units higher.

As to `CC(C(=O)N[C@]1(c2ccccc2)CC[C@@H](N2CCC(c3ccc(F)cc3)CC2)CC1)c1cc(C(F)(F)F)cc(C(F)(F)F)c1` (mixture of isomers), the pIC50 was 9.20.

In turn, `O=C(NCc1cc(C(F)(F)F)cc(C(F)(F)F)c1)[C@]1(c2ccccc2)CC[C@H](N2CCC(c3ccc(F)cc3)CC2)CC1` had a negative logarithm of the IC50 (pIC50) of 9.47. Against the preceding compound, the pIC50 is 0.27 log units higher.

`O=C(OC[C@]1(c2ccccc2)CC[C@H](N2CCC(c3ccc(F)cc3)CC2)CC1)c1cc(C(F)(F)F)cc(C(F)(F)F)c1` gave a negative-log IC50 (pIC50) of 6.92.

For a further test, the system named is Gerbillinae. Briefly: Inhibitory dose after 2 hours required to produce blockade of foot-tapping activity induced by central infusion of NK1-agonist GR-73632. The following applies: read-out: ID50 (the source's name). The class given is functional.
For `CC(C(=O)N[C@]1(c2ccccc2)CC[C@@H](N2CCC(c3ccc(F)cc3)CC2)CC1)c1cc(C(F)(F)F)cc(C(F)(F)F)c1` (mixture of isomers), the ED50 was determined as 0.6 mg/kg.

A further test has as its system Gerbillinae. Briefly: Inhibitory activity when the NK1 agonist challenge was given 2 hr after dosing at 3 mg/kg, iv. The class given is functional.
Settings: not given
As to `O=C(NCc1cc(C(F)(F)F)cc(C(F)(F)F)c1)[C@]1(c2ccccc2)CC[C@H](N2CCC(c3ccc(F)cc3)CC2)CC1`, testing at 3 mg/kg gave an inhibition in vivo of 15%.
